Where “and” joins values, the source holds several entries; their conditions need not be identical. Equal values may be shown once.
Tested on: participants (males and females) taking 1 l dark beer every evening
Assay: Example 7: hangover and biochemical indices in participants taking dark beer with Unithiol or placebo
Assay type: in vivo, human
Conditions: for MDA (urine) / ALT (blood) / AST (blood) / SH-gr. (blood) / Triglycerides (blood) / Urate (blood) / Vit. A (blood) / Vit. E (blood): one value per participant
From the text: The tests were held upon the offer's proposal. The Moscow scientific and practical Center for the drug prophylactic of the Moscow health Administration was taken as the base for it.
The experiment was schemed as follows. The participants were taken from males and females of different age groups and different alcohol intake habits.
The control group remained as an intact one.
The experimental group—1—took in 1 l. of a dark beer of the “Klinskoie” type every evening from the X^th day till the X+13th day. That group took in the placebo every morning from the X+1th day till X+7th day, and every morning it took in from the X+8th day till X+14th day the solution of 250 mg of Unithiol in 100 g of drinking water.
The experimental group—2—took in 1 l. of a dark beer of the “Klinskoie” type every evening from the X^th day till the X+13th day. That group took in the solution of 250 mg of Unithiol in 100 g of drinking water every morning from the X+1th day till X+7th day, and every morning it took in the placebo from the X+8th day till X+14th day.
The measurements of the biochemical indices were taken in the mornings in every group, and in the control groups—after 30 minutes of placebo or Unithiol intake.
The following indices of the level of the per oxidation of lipids and the condition of the liver and the brain tissues were measured: • MDA—malondialdehyde • Triglycerides • Endogenous antioxidants: • Vit. A—vitamin A • Vit. E—vitamin E • Urate—serum urate • SH-gr.—SH-groups • Aminotransferase: • ALT—lanine aminotransferase • AST—aspartate aminotransferase

[1] = day X+7, Experimental group 2: beer every evening, 250 mg Unithiol mornings X+1 to X+7
[2] = day X+14, Experimental group 1: beer every evening, 250 mg Unithiol mornings X+8 to X+14

`O=S(=O)([O-])CC(S)CS.[Na+]` (stereo not shown) [Unithiol, Sodium 2,3-Dimercaptopropane sulfonate] was tested, and the “time to full hangover alleviating after intake” value (250 mg Unithiol in 100 g drinking water in the morning after 1 l dark beer in the evening) was 5 to 10 min, the “toxic activity of ethanol and products of its incomplete oxidation (carbonyl compounds) to liver and brain tissue” value (Unithiol intake during alcohol intake) was “reduce almost to the whole extent” and the “MDA (urine)” value (day X+2, Experimental group 2: 1 l dark beer every evening, 250 mg Unithiol mornings X+1 to X+7) was 0.62 nM/ml and 0.45 nM/ml (2×) and 0.47 nM/ml and 0.43 nM/ml and 0.99 nM/ml and 0.67 nM/ml. For the same compound, the “MDA (urine)” value (day X+4, Experimental group 2: beer every evening, 250 mg Unithiol mornings X+1 to X+7) was 0.60 nM/ml and 0.58 nM/ml (2×) and 0.42 nM/ml and 0.51 nM/ml and 0.88 nM/ml and 0.53 nM/ml, the “ALT (blood)” value [1] was 61 nmol (sec. 1) and 50 nmol (sec. 1) (2×) and 37 nmol (sec. 1) and 46 nmol (sec. 1) and 190 nmol (sec. 1) and 39 nmol (sec. 1) and the “AST (blood)” value [1] was 48 nmol (sec. 1) and 46 nmol (sec. 1) and 31 nmol (sec. 1) and 41 nmol (sec. 1) and 37 nmol (sec. 1) and 172 nmol (sec. 1) and 30 nmol (sec. 1). For the same compound, the “MDA (urine)” value [1] was 0.55 nM/ml and 0.43 nM/ml and 0.49 nM/ml and 0.42 nM/ml and 0.38 nM/ml and 0.89 nM/ml and 0.56 nM/ml, the “SH-gr. (blood)” value [1] was 378 MKM and 389 MKM (2×) and 383 MKM and 380 MKM and 197 MKM and 354 MKM and the “Triglycerides (blood)” value [1] was 0.80 mmoi/l and 0.59 mmoi/l and 0.44 mmoi/l and 0.43 mmoi/l and 0.41 mmoi/l and 1.73 mmoi/l and 0.42 mmoi/l. For the same compound, the “Urate (blood)” value [1] was 268 MKM and 267 MKM and 311 MKM and 295 MKM and 280 MKM and 208 MKM and 279 MKM, the “Vit. A (blood)” value [1] was 1.9 µg/mL and 2.2 µg/mL and 2.8 µg/mL and 2.3 µg/mL and 2.7 µg/mL and 0.6 µg/mL and 1.6 µg/mL and the “Vit. E (blood)” value [1] was 2.6 µg/mL and 3.3 µg/mL and 3.1 µg/mL and 3.8 µg/mL and 3.2 µg/mL and 1.0 µg/mL and 2.4 µg/mL. For the same compound, the “MDA (urine)” value (day X+9, Experimental group 1: 1 l dark beer every evening, placebo mornings X+1 to X+7, 250 mg Unithiol mornings X+8 to X+14) was 0.7 nM/ml and 1.0 nM/ml and 0.90 nM/ml and 0.82 nM/ml, the “MDA (urine)” value (day X+11, Experimental group 1: beer every evening, 250 mg Unithiol mornings X+8 to X+14) was 0.63 nM/ml and 0.80 nM/ml and 0.72 nM/ml and 0.54 nM/ml and the “ALT (blood)” value [2] was 52 nmol (sec. 1) and 58 nmol (sec. 1) and 45 nmol (sec. 1) and 42 nmol (sec. 1). For the same compound, the “AST (blood)” value [2] was 41 nmol (sec. 1) and 50 nmol (sec. 1) and 40 nmol (sec. 1) and 35 nmol (sec. 1), the “MDA (urine)” value [2] was 0.69 nM/ml and 0.82 nM/ml and 0.64 nM/ml and 0.53 nM/ml and the “SH-gr. (blood)” value [2] was 384 MKM and 375 MKM and 389 MKM and 392 MKM. The “Triglycerides (blood)” value [2] was 0.65 mmoi/l and 0.59 mmoi/l and 0.71 mmoi/l and 0.64 mmoi/l, the “Urate (blood)” value [2] was 265 MKM and 253 MKM and 285 MKM and 279 MKM and the “Vit. A (blood)” value [2] was 1.4 mcg/ml (2×) and 1.2 mcg/ml and 2.1 mcg/ml. For the same compound, the “Vit. E (blood)” value [2] was 2.8 µg/mL and 2.1 µg/mL and 2.2 µg/mL and 1.7 µg/mL.

Reference: patent publication US7820196B2, “Physiologically active agents containing vicinal dithioglycols and use thereof in various branches of economy” (priority 1999, dated 2010)
